Source: US20130310379A1, “MODULATORS OF METHYL MODIFYING ENZYMES, COMPOSITIONS AND USES THEREOF” (CONSTELLATION PHARMACEUTICALS, priority 2010, published 2013)

target: EZH2 (Homo sapiens, UniProt Q15910); assay: EZH2 assay: rPRC2 with biotinylated oligonucleosome substrates and 3H SAM, FlashPlate scintillation counting, IC50; assay type: biochemical; details: not given
Protocol: Assays were carried out by mixing rPRC2 together with biotinylated oligonucleosome substrates in the presence of the radio-labeled enzyme co-factor, S-adenosyl-L-methionine (^3H SAM) (Perkin Elmer) and monitoring the enzymatically mediated transfer of tritiated methyl groups from ^3H SAM to histone lysine residues. The amount of resulting tritated methylhistone product was measured by first capturing the biotinylated oligonuclesomes in streptavidin (SAV) coated FlashPlates (Perkin Elmer), followed by a wash step to remove un-reacted ^3H SAM, and then counting on a TopCount NXT 384 well plate scintillation counter (Perkin Elmer). The final assay conditions for EZH2 were as follows: 50 mM Tris Buffer pH 8.5, 1 mM DTT, 69 uM Brij-35 detergent, 5.0 mM MgCl2, 0.1 mg/mL BSA, 0.2 uM ^3H SAM, 0.2 uM biotinylated oligonucleosomes, 3.6 uM H3K27me3 peptide and 2 nM EZH2.
Compound IC50 measurements were obtained as follows: Compounds were first dissolved in 100% DMSO as 10 mM stock solutions. […] A 12.5 uL volume of the HMT enzyme, H3K27me3 peptide and oligonucleosome substrate in assay buffer was added to each well of the assay plate using a Multidrop Combi (ThermoFisher). Compounds were pre-incubated with the enzyme for 20 min, followed by initiation of the methyltransferase reaction by addition of 12.5 uL of 3H SAM in assay buffer (final volume=25 uL). The final concentrations of compounds ranged from a top default concentration of 80 uM down to 0.16 uM in ten 2-fold dilution steps. Reactions were carried out for 60 minutes and quenched with 20 uL per well of 1.96 mM SAH, 50 mM Tris PH 8.5, 200 mM EDTA. Stopped reactions were transferred to SAV coated Flashplates (Perkin Elmer), incubated for 120 min, washed with a plate washer, and then read on the TopCount NXT (1.0 min/well) to measure the amount of methylhistone product formed during the reaction. The amount of methylhistone product was compared with the amount of product formed in the 0% and 100% inhibition control wells allowing the calculation of % Inhibition in the presence of the individual compounds at various concentrations. IC50's were computed using a 4 parameter fit non-linear curve fitting software package (XLFIT, part of the database package, ActivityBase (IDBS)) where the four parameters were IC50, Hill slope, pre-transitional baseline (0% INH), and post-transitional baseline (100% INH); with the latter two parameters being fixed to zero and 100%, respectively, by default.

EZH2, sequence (Q15910 whole entry): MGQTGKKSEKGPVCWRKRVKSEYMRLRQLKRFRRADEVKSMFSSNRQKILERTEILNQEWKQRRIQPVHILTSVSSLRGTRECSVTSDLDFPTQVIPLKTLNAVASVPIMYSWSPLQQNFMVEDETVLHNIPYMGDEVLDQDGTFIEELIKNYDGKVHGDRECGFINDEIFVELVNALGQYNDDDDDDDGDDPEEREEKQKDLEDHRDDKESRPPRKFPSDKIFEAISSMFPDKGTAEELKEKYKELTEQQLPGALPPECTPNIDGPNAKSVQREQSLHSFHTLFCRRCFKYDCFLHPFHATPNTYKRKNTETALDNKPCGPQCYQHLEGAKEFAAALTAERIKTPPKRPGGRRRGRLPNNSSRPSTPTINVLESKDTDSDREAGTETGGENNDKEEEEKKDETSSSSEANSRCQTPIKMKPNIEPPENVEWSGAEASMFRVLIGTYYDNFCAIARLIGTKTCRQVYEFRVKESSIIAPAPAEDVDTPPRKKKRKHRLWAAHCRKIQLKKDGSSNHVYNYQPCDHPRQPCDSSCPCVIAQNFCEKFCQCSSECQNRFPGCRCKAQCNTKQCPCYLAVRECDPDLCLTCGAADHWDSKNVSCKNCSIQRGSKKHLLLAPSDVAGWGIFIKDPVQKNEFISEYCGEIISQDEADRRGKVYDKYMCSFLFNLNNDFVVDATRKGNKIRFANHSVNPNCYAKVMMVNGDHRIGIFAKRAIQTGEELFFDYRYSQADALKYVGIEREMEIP
EZH2, sequence (O75530 whole entry partner): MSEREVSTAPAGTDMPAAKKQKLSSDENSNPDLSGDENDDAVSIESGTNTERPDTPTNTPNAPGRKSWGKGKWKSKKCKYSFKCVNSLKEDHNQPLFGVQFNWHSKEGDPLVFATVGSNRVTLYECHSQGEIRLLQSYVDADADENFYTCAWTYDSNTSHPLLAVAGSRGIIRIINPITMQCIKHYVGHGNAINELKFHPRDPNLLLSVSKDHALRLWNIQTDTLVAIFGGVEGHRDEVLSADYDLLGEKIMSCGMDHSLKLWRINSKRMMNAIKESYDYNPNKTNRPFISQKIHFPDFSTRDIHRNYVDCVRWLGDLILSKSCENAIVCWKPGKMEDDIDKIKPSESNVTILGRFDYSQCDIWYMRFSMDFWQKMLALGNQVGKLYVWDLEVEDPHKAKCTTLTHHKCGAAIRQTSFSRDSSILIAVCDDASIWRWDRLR
EZH2, sequence (Q15022 whole entry partner): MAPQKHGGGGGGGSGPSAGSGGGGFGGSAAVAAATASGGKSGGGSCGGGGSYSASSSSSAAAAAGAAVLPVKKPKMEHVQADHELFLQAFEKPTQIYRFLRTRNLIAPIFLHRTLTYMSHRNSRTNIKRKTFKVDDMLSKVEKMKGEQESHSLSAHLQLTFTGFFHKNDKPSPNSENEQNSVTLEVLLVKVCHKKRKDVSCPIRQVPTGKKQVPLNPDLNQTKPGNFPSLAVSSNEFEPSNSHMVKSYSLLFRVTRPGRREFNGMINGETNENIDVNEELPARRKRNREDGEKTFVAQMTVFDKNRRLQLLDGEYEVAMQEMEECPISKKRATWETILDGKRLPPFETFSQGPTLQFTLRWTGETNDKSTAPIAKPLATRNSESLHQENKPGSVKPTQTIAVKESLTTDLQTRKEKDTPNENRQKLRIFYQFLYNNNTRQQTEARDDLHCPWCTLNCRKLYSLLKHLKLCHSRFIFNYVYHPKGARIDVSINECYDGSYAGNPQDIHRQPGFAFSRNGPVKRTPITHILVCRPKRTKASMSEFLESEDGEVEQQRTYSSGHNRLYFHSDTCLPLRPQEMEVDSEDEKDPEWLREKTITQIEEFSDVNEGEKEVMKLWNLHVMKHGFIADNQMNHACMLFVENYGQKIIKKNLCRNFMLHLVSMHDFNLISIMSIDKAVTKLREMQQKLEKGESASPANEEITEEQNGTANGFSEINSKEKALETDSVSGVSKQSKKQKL

| SMILES | IC50 |
| --- | --- |
| CC1(C)CC(NC(=O)c2ccc(Oc3ccccc3C#N)c(Cl)c2)CC(C)(C)N1[O] [Compound I-402] | > 80 µM |

same assay, conditions: rPRC2, biotinylated oligonucleosome substrates, 3H SAM; read-out: EZH2 IC50

| SMILES | IC50 |
| --- | --- |
| Cc1cc(Oc2ccccc2)ccc1C(=O)NC1CC(C)(C)NC(C)(C)C1 [Compound I-124, 2-methyl-4-phenoxy-N-(2,2,6,6-tetramethylpiperidin-4-yl)-benzamide] | > 80 µM |
| Cc1ccc(-c2ccccc2Oc2ccc(C(=O)NC3CC(C)(C)NC(C)(C)C3)cc2Cl)cn1 [Compound I-295] | < 5 µM |
| COc1ccc(-c2cccc(OCc3ccc(C(=O)NC4CC(C)(C)NC(C)(C)C4)cc3)c2)cn1 [Compound I-41] | 20 to 80 µM |
| CC1(C)CC(NC(=O)c2ccc(Oc3ccccc3)cc2)CC(C)(C)N1 [Compound I-52] | 20 to 80 µM |
| CC1(C)CC(NC(=O)c2ccc(-n3ccc4cc(O)ccc43)c(Cl)c2)CC(C)(C)N1 [Compound I-494] | 20 to 80 µM |
| COCCNC(=O)CCc1cccc(Oc2ccc(C(=O)NC3CC(C)(C)NC(C)(C)C3)cc2Cl)c1C#N [Compound I-554] | < 5 µM |
| CC1(C)CC(NC(=O)c2ccc(Oc3ccccc3)cc2F)CC(C)(C)N1 [Compound I-203] | > 80 µM |
| CC1(C)CC(NC(=O)c2ccc(Oc3ccccc3N3CCOCC3)cc2)CC(C)(C)N1 [Compound I-44] | 20 to 80 µM |
| CC1(C)CC(NC(=O)c2ccc3ccccc3c2)CC(C)(C)N1 [Compound I-137] | > 80 µM |
| CN(c1ccccc1)c1ccc(C(=O)NC2CC(C)(C)NC(C)(C)C2)cc1 [Compound I-108, 4-(Methyl(phenyl)amino)-N-(2,2,6,6-tetramethylpiperidin-4-yl)benzamide] | > 80 µM |
| CC1(C)CC(NC(=O)c2ccc(Oc3ccccc3CO)cc2)CC(C)(C)N1 [Compound I-179] | 20 to 80 µM |
| CN1CCC(N(C)C(=O)c2ccc(Oc3ccccc3)cc2)CC1 [Compound I-72] | > 80 µM |
| CC1(C)CC(NC(=O)c2ccc(C(=O)Nc3ccccc3)cc2)CC(C)(C)N1 [Compound I-160] | > 80 µM |
| Cc1cccc(OCc2ccc(C(=O)NC3CC(C)(C)NC(C)(C)C3)cc2)c1 [Compound I-46, N-(2,2,6,6-tetramethylpiperidin-4-yl)-4-(m-tolyloxymethyl)benzamide] | 20 to 80 µM |
| CC1(C)CC(NC(=O)c2ccc(Oc3cccc(-c4cccnc4N)c3C#N)c(Cl)c2)CC(C)(C)N1 [Compound I-361] | 5 to 20 µM |
| Cc1ccncc1-c1ccccc1Oc1ccc(C(=O)NC2CC(C)(C)NC(C)(C)C2)cc1Cl [Compound I-297] | 5 to 20 µM |
| CC1(C)CC(NC(=O)c2ccc(Oc3ccccc3C#N)c(Cl)c2)CC(C)(C)C1 [Compound I-433] | > 80 µM |
| N#Cc1c(Oc2ccc(C(=O)NC3CCNCC3C#N)cc2Cl)cccc1-c1ccnnc1 (centres unmarked) [Compound I-329] | > 80 µM |
| CC(C)Oc1ccc(C(=O)NC2CC(C)(C)NC(C)(C)C2)cc1 [Compound I-136] | > 80 µM |

| SMILES | IC50 |
| --- | --- |
| CC1(C)CC(NC(=O)Nc2ccc(C(C)(C)C)cc2Br)CC(C)(C)N1 [Compound I-143] | > 80 µM |
| CC1(C)CC(NC(=O)c2ccc(COc3cccc(-c4cc[nH]c(=O)c4)c3)cc2)CC(C)(C)N1 [Compound I-11] | 5 to 20 µM |
| CCc1cc(C(=O)NC2CC(C)(C)NC(C)(C)C2)ccc1Oc1ccccc1C#N [Compound I-265] | < 5 µM |
| Cc1cccc(C)c1OCc1ccc(C(=O)NC2CC(C)(C)NC(C)(C)C2)cc1 [Compound I-23] | 20 to 80 µM |
| CC1(C)CC(NC(=O)c2ccc(Oc3ccc4ncccc4c3)cc2)CC(C)(C)N1 [Compound I-172] | > 80 µM |
| O=C(NCCc1cccnc1)c1ccc(Oc2ccccc2)cc1 [Compound I-102] | > 80 µM |
| CC1(C)CC(NC(=O)c2ccc(Oc3ccc(F)cc3C#N)c(Cl)c2)CC(C)(C)N1 [Compound I-359] | 5 to 20 µM |
| N#Cc1ccccc1Oc1ccc(C(=O)N[C@H]2C[C@H]3CC[C@@H](C2)N3)cc1Cl [Compound I-408] | > 80 µM |
| CC1(C)CC(NC(=O)c2ccc(Oc3cccc(C4CCOC4)c3C#N)c(Cl)c2)CC(C)(C)N1 (centres unmarked) [Compound I-530] | < 5 µM |
| CC1(C)CC(NC(=O)c2ccc(Oc3ncccc3F)cc2)CC(C)(C)N1 [Compound I-110] | > 80 µM |
| CCN1C(C)(C)CC(NC(=O)c2ccc(Oc3ccccc3C#N)c(Cl)c2)CC1(C)C [Compound I-276] | 5 to 20 µM |
| CC(Oc1ccccc1Oc1ccc(C(=O)NC2CC(C)(C)NC(C)(C)C2)cc1)c1ccccc1 (centres unmarked) [Compound I-208] | 5 to 20 µM |
| CC1(C)CC(NC(=O)c2ccc(Oc3cccc(CN4CCCCC4)c3)cc2)CC(C)(C)N1 [Compound I-169] | 5 to 20 µM |
| CC1(C)CC(NC(=O)c2ccccc2Oc2ccccc2)CC(C)(C)N1 [Compound I-95] | > 80 µM |
| CN1CCC(NC(=O)c2ccc(Oc3ccccc3)cc2)CC1 [Compound I-113] | > 80 µM |
| CC1(C)CC(NC(=O)c2ccc(Oc3ccncc3C#N)c(Cl)c2)CC(C)(C)N1 [Compound I-349] | 5 to 20 µM |
| CC1(C)CC(NCc2ccc(Oc3ccccc3C#N)cc2)CC(C)(C)N1 [Compound I-306] | > 80 µM |
| CC1(C)CC(NC(=O)c2ccc(Oc3ccccc3C#N)c(COc3ccccc3)c2)CC(C)(C)N1 [Compound I-239] | < 5 µM |
| Cc1ccc(CO)cc1Oc1ccc(C(=O)NC2CC(C)(C)NC(C)(C)C2)cc1 [Compound I-43] | 20 to 80 µM |

Continued, values first:

| IC50 | SMILES |
| --- | --- |
| < 5 µM | CC1(C)CC(NC(=O)c2ccc(Oc3ccccc3C#N)c3ccccc23)CC(C)(C)N1 [Compound I-270] |
| 20 to 80 µM | CC1(C)CC(NC(=O)c2ccc(Oc3ccccc3OCc3cccnc3)cc2)CC(C)(C)N1 [Compound I-232] |
| 5 to 20 µM | CC1(C)CC(NC(=O)c2ccc(-c3ccc4ccncc4c3)c(Cl)c2)CC(C)(C)N1 [Compound I-377] |
| > 80 µM | Cc1cccc(OCc2ccc(C(=O)NC3CC(C)(C)NC(C)(C)C3)cc2)n1 [Compound I-85, 4-((6-methylpyridin-2-yloxy)methyl)-N-(2,2,6,6-tetramethylpiperidin-4-yl)benzamide] |
| 5 to 20 µM | Cc1cc(C(=O)NC2CC(C)(C)NC(C)(C)C2)ccc1Oc1ccccc1C(C)C [Compound I-332] |
| < 5 µM | CC1(C)CC(NC(=O)c2ccc(Oc3cccc(-c4ccc(C#N)cc4)c3C#N)c(Cl)c2)CC(C)(C)N1 [Compound I-506] |
| > 80 µM | O=C(NC1CCCCC1)c1ccc(Oc2ccccc2)cc1 [Compound I-134] |
| > 80 µM | CC1(C)CC(NC(=O)c2ccc(Oc3ccccc3C#N)c(Cl)c2)CC(C(=O)O)N1 (centres unmarked) [Compound I-419] |
| > 80 µM | CC1(C)CC(NC(=O)c2ccc(OCc3ccccc3F)cc2)CC(C)(C)N1 [Compound I-90] |
| 20 to 80 µM | CC1(C)CC(NC(=O)c2ccc(Oc3cccc(-c4ccnnc4)c3C#N)c(Cl)c2)CC(C)(C)[S+]1[O-] (centres unmarked) [Compound I-518] |
| > 80 µM | CC1(C)CC(NC(=O)c2ccc([S+]([O-])c3ccccc3)cc2)CC(C)(C)N1 (centres unmarked) [Compound I-355] |
| > 80 µM | CC1(C)CC(NC(=O)c2ccc(Oc3ccccc3)cc2O)CC(C)(C)N1 [Compound I-122] |
| 5 to 20 µM | CC1(C)CC(NC(=O)c2ccc(Oc3ccccc3C#N)c(Cl)c2)CCN1 (centres unmarked) [Compound I-503] |
| > 80 µM | CC1(C)CC(NC(=O)c2ccc(Cc3ccccc3)cc2)CC(C)(C)N1 [Compound I-127, 4-Benzyl-N-(2,2,6,6-tetramethylpiperidin-4-yl)benzamide] |
| 5 to 20 µM | CC1(C)CC(NC(=O)c2ccc(Oc3ccccc3C#N)c(-c3cncnc3)c2)CC(C)(C)N1 [Compound I-202] |
| 5 to 20 µM | CC1(C)CC(NC(=O)c2ccc(Oc3cccc(C(N)=O)c3C#N)c(Cl)c2)CC(C)(C)N1 [Compound I-394] |
| 20 to 80 µM | N#Cc1ccccc1Oc1ccc(C(=O)N[C@@H]2C[C@H]3CC[C@@H](C2)N3)cc1Cl [Compound I-380] |
| < 5 µM | CC1(C)CC(NC(=O)c2ccc(Oc3cccc(CC#N)c3)c(Cl)c2)CC(C)(C)N1 [Compound I-451] |
| > 80 µM | CC1(C)CC(NC(=O)c2ccc(OC3CCCNC3)c(Cl)c2)CC(C)(C)N1 (centres unmarked) [Compound I-393] |
| 20 to 80 µM | CC1(C)CC(NC(=O)c2ccc(Oc3nccc4ccccc34)c(Cl)c2)CC(C)(C)N1 [Compound I-242] |
| > 80 µM | CN(C(=O)c1ccc(Oc2ccccc2)cc1)C1CCNCC1 [Compound I-125, N-Methyl-4-phenoxy-N-(piperidin-4-yl)benzamide 2,2,2-trifluoroacetate] |
| > 80 µM | CC1(C)CC(NC(=O)c2ccc(OC[C@@H]3CCCN3)c(Cl)c2)CC(C)(C)N1 [Compound I-410] |
| < 5 µM | Cn1cc(-c2cccc(Oc3ccc(C(=O)NC4CC(C)(C)NC(C)(C)C4)cc3Cl)c2C#N)ccc1=O [Compound I-476] |
